Measurements reported in PubChem BioAssay (NCI).
Values joined by “and” are separate entries in the source; they are usually repeats but may differ in a detail not shown here. Identical values can stand only once.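 Compound exposure: 48 hours, 5 concentrations, 96-well plates. GI50 is the concentration that inhibits growth by half. TGI marks complete inhibition of growth.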

How the values were obtained:
Test in all cases: NCI tumour cell line growth inhibition, 48 h
MOLT-4 leukemia = test system: MOLT-4 leukemia
ACHN renal = test system: ACHN renal
UACC-62 melanoma = test system: UACC-62 melanoma
HCT-15 colon = test system: HCT-15 colon
PC-3 prostate = test system: PC-3 prostate
NCI-H226 lung = test system: NCI-H226 lung
K-562 leukemia = test system: K-562 leukemia
MALME-3M melanoma = test system: MALME-3M melanoma
OVCAR-5 ovarian = test system: OVCAR-5 ovarian
OVCAR-4 ovarian = test system: OVCAR-4 ovarian

| Compound | GI50 (MOLT-4 leukemia) | TGI (MOLT-4 leukemia) | GI50 (ACHN renal) | TGI (ACHN renal) | GI50 (UACC-62 melanoma) | TGI (UACC-62 melanoma) | GI50 (HCT-15 colon) | TGI (HCT-15 colon) | GI50 (PC-3 prostate) | TGI (PC-3 prostate) | GI50 (NCI-H226 lung) | TGI (NCI-H226 lung) | GI50 (K-562 leukemia) | TGI (K-562 leukemia) | GI50 (MALME-3M melanoma) | TGI (MALME-3M melanoma) | GI50 (OVCAR-5 ovarian) | TGI (OVCAR-5 ovarian) | GI50 (OVCAR-4 ovarian) | TGI (OVCAR-4 ovarian) |
| --- | --- | --- | --- | --- | --- | --- | --- | --- | --- | --- | --- | --- | --- | --- | --- | --- | --- | --- | --- | --- |
| CC/C=C\CCC/C=C1/C(=O)C=C[C@@H]1C/C=C\CCCC(=O)O | 2.44 µM | 8.93 µM | 1.89 µM | 3.61 µM | 2.22 µM | 4.93 µM | 1.93 µM | 4.52 µM | 3.64 µM | 9.82 µM | 4.35 µM | 30.1 µM | 2.5 µM | 37.9 µM | 8.66 µM | 26.6 µM | 4.85 µM | 15.3 µM | 6.93 µM | 22.1 µM |
| CC(=O)/C(C)=N/N/C(N)=N\S(=O)(=O)c1cc(C(=O)Nc2ccccc2)c(Cl)cc1SCc1ccccc1 | 3.73 µM | 56.3 µM | 7.89 µM | > 100 µM | 16.4 µM | > 100 µM | > 100 µM | > 100 µM | > 100 µM | > 100 µM | 66.7 µM | > 100 µM | 5.54 µM | > 100 µM | > 100 µM | > 100 µM | > 100 µM | > 100 µM | 12.3 µM | > 100 µM |
| CC1(C)OCN(c2ccc(Cl)cc2)Cn2c1nc1ccccc12 |  | > 100 µM |  | > 100 µM |  | 5.58 µM |  | > 100 µM |  | > 100 µM |  | > 100 µM |  | > 100 µM |  | > 100 µM |  | > 100 µM |  | > 100 µM |
| CN(C)c1ccc(/C=C/c2ccnc3ccccc23)cc1 | 3.59 µM | 43.6 µM | 5.58 µM | > 100 µM | 3.11 µM | > 100 µM and 29.5 µM | 3.76 µM | > 100 µM | 3.28 µM | > 100 µM and 46.6 µM | 3 µM | 48 µM | 1.66 µM | > 100 µM | 11.2 µM | > 100 µM and 55.4 µM | 6.9 µM | > 100 µM and 49.6 µM | 16.8 µM | > 100 µM |
| NC(CSC(c1ccccc1)(c1ccccc1)c1ccc2ccccc2c1)C(=O)O (stereo not drawn) | 0.29 µM | > 33.8 µM | 0.911 µM | 30.8 µM | 0.0628 µM | 13.6 µM | 0.175 µM | 23.7 µM | 0.0628 µM | > 82.7 µM | 9.27 µM | 24.5 µM | 0.0461 µM | > 100 µM | 1.33 µM | 25.4 µM | 0.323 µM | 16.9 µM | 13.1 µM | 33.2 µM |
| COc1ccccc1-n1c(SCc2cc(OC)c(OC)c(OC)c2)nc2ccc(Cl)cc2c1=O | 3.05 µM | > 100 µM | 7.07 µM | > 100 µM | 3.04 µM | > 100 µM | 1.46 µM | > 100 µM | 2.65 µM | > 100 µM | 13.3 µM | > 100 µM | 1.02 µM | > 100 µM | 8.76 µM | > 100 µM | 7.47 µM | > 100 µM | 7.35 µM | > 100 µM |
| COc1ccc(/C=C(\C#N)c2cc3ccccc3n2C)cc1 | 0.448 µM | > 40.3 µM | 0.654 µM | > 100 µM | 0.504 µM | > 100 µM | 0.372 µM | > 100 µM | 0.448 µM | > 100 µM | 1.87 µM | > 70.8 µM | 0.178 µM | > 100 µM | 0.475 µM | > 100 µM | 0.852 µM | > 100 µM | 1.09 µM | > 100 µM |
| O=[N+]([O-])c1ccc2c(N=Nc3c(O)ccc4ccccc34)c(O)cc(S(=O)(=O)O)c2c1 | 15.7 µM | 50 µM and > 100 µM | 18.1 µM | 50 µM and > 100 µM | 34.2 µM | 50 µM and > 100 µM | 29.9 µM | 50 µM and > 100 µM | 34.5 µM | 50 µM and > 100 µM |  | 50 µM | 25 µM | 50 µM and > 100 µM | 50.1 µM | 40.3 µM and > 100 µM | 70.3 µM | 50 µM and > 100 µM |  | 50 µM |
| Cn1cnc([N+](=O)[O-])c1Sc1ncnc2c1ncn2C1OC(CO)C(O)C1O (stereo not drawn) | 8.32 µM | 64.5 µM | 25.7 µM | > 100 µM | 5.98 µM | > 100 µM | 11.6 µM | > 100 µM | 8.66 µM | > 100 µM | 8.04 µM | > 100 µM | 3.35 µM | > 100 µM | 46.3 µM | > 100 µM | 42 µM | > 100 µM | 45.3 µM | > 100 µM |
| Oc1ccccc1-n1c(-c2ccccc2)ccc1-c1ccccc1 | 3.81 µM | 16.8 µM | 9.13 µM | 21.2 µM | 5.43 µM | > 100 µM | 5.57 µM | 28.7 µM | 2.95 µM | 15.8 µM | 8.69 µM | 21.9 µM | 5.17 µM | 64.3 µM | 2.9 µM | 16.2 µM | 15.2 µM | 48.7 µM | 7.24 µM | 23.3 µM |
